Test [1] addresses recombinant poly(ADP-ribose) polymerase 2 (PARP2). Briefly: PARP2 chemiluminescent assay. Format: biochemical. Conditions: inhibition of PARP2 enzyme activity, chemiluminescence.
The subject of the next test is MDA-MB-436 cells. The test is described as follows: Growth inhibition assay against BRCA mutant human breast cancer MDA-MB-436 cell line (CCK-8). Format: cell-based. Conditions: proliferation of MDA-MB-436 cells, 7 days.
Test [2] deals with recombinant poly(ADP-ribose) polymerase 1 (PARP1) (Homo sapiens (Human), UniProt P09874).
Sequence of recombinant poly(ADP-ribose) polymerase 1 (PARP1) (P09874 whole entry): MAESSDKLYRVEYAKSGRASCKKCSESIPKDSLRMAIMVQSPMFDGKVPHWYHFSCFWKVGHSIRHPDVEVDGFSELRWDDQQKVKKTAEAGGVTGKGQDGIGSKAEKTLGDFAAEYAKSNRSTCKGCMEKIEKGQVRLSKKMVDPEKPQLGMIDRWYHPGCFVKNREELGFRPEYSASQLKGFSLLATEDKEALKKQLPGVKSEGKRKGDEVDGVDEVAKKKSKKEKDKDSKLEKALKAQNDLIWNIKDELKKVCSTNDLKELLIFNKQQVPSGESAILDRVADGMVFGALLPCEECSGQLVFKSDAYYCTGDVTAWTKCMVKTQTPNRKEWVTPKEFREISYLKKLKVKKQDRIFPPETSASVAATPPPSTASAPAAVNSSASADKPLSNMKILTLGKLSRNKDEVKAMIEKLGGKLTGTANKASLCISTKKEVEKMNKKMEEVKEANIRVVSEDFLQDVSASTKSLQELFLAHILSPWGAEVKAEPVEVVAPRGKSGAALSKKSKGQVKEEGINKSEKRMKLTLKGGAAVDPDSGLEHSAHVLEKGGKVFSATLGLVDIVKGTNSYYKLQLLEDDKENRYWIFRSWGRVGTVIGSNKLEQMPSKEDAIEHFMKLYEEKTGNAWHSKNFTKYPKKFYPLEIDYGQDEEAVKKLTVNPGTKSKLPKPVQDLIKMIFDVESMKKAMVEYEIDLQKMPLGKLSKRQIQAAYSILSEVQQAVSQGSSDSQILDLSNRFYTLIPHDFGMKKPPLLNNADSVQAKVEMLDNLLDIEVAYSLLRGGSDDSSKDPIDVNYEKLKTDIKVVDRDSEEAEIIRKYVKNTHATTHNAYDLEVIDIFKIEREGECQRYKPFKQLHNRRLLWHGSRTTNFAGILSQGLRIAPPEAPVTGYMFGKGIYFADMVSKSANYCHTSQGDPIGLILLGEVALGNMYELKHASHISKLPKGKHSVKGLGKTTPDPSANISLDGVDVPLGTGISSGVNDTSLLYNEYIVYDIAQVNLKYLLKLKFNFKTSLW

Among the data in patent publication US20250215013A1, “SUBSTITUTED TRICYCLIC COMPOUNDS AS PARP INHIBITORS AND THE USE THEREOF” (IMPACT THERAPEUTICS (SHANGHAI), INC., priority 2022, published 2025) are IC50 values, retold here.

As to `CNC(=O)c1ccc(N2CCN(Cc3ccc4c(c3)[nH]c(=O)c3cn(C)nc34)CC2)c(C)n1` [Example 9, 7-((4-(2-methyl-6-(methylcarbamoyl)pyridin-3-yl)piperazin-1-yl)methyl)-2-methyl-2,5-dihydro-4H-pyrazolo[4,3-c]quinolin-4-one], the IC50 in test [1] turned out to be 3280 nM; with MDA-MB-436 cells (Homo sapiens, MDA-MB-436, […]), 3.2 nM; in test [2] it was 2.45 nM.

On to `CNC(=O)c1ccc(N2CCN(Cc3ccc4c(c3)[nH]c(=O)c3[nH]ccc34)CC2)c(C)n1` [Example 10, 7-((4-(2-methyl-6-(methylcarbamoyl)pyridin-3-yl)piperazin-1-yl)methyl)-3,5-dihydro-4H-pyrrolo[2,3-c]quinolin-4-one], for which the IC50 in test [1] was above 10000 nM; with MDA-MB-436 cells (Homo sapiens, MDA-MB-436, […]), 15.5 nM; in test [2] it was 8.24 nM.

As to `CNC(=O)c1ccc(N2CCN(Cc3ccc4c(c3)[nH]c(=O)c3ncoc34)CC2)c(C)n1` [Example 12, 7-((4-(2-methyl-6-(methylcarbamoyl)pyridin-3-yl)piperazin-1-yl)methyl)oxazolo[4,5-c]quinolin-4(5H)-one], the half-inhibitory concentration (IC50) in test [1] came out at 6370 nM; with MDA-MB-436 cells (Homo sapiens, MDA-MB-436, […]), 1.15 nM; in test [2], 1.11 nM.

On to `CNC(=O)c1ccc(N2CCN(Cc3ccc4c(c3)[nH]c(=O)c3ocnc34)CC2)c(C)n1` [Example 14, 7-((4-(2-methyl-6-(methylcarbamoyl)pyridin-3-yl)piperazin-1-yl)methyl)oxazolo[5,4-c]quinolin-4(5H)-one], for which the half-inhibitory concentration (IC50) in test [1] was above 10000 nM; with MDA-MB-436 cells (Homo sapiens, MDA-MB-436, […]), 21.3 nM; in test [2], 1.86 nM.

Take `CNC(=O)c1ccc(N2CCN(Cc3ccc4c(c3)[nH]c(=O)c3nc[nH]c34)CC2)c(C)n1` [Example 25, 7-((4-(2-methyl-6-(methylcarbamoyl)pyridin-3-yl)piperazin-1-yl)methyl)-1,5-dihydro-4H-imidazo[4,5-c]quinolin-4-one]: the IC50 amounted to 2490 nM in test [1]; 61.8 nM in the test with MDA-MB-436 cells (Homo sapiens, MDA-MB-436, […]); 3.39 nM in test [2].

Take `CNC(=O)c1ccc(N2CCN(Cc3ccc4c(c3)[nH]c(=O)c3ncn(C)c34)CC2)c(C)n1` [Example 26, 7-((4-(2-methyl-6-(methylcarbamoyl)pyridin-3-yl)piperazin-1-yl)methyl)-1-methyl-1,5-dihydro-4H-imidazo[4,5-c]quinolin-4-one]: the IC50 was 2420 nM in test [1]; above 100 nM with MDA-MB-436 cells (Homo sapiens, MDA-MB-436, […]); 4.43 nM in test [2].

For the compound `CNC(=O)c1ccc(N2CCN(Cc3ccc4c(c3)[nH]c(=O)c3c4ncn3C)CC2)c(C)n1` [Example 28, 7-((4-(2-methyl-6-(methylcarbamoyl)pyridin-3-yl)piperazin-1-yl)methyl)-3-methyl-3,5-dihydro-4H-imidazo[4,5-c]quinolin-4-one], the IC50 was 2060 nM in test [1]; 19.4 nM with MDA-MB-436 cells (Homo sapiens, MDA-MB-436, […]); 2.42 nM in test [2].

Consider `CNC(=O)c1ccc(N2CCN(Cc3ccc4c(c3)[nH]c(=O)c3oncc34)CC2)c(C)n1` [Example 30, 7-((4-(2-methyl-6-(methylcarbamoyl)pyridin-3-yl)piperazin-1-yl)methyl)isoxazolo[5,4-c]quinolin-4(5H)-one], for which the IC50 in test [1] was above 10000 nM; in the test on MDA-MB-436 cells (Homo sapiens, MDA-MB-436, […]), above 100 nM; in test [2] it was 138 nM.

Turning to `CNC(=O)c1ccc(N2CCN(Cc3ccc4c(c3)[nH]c(=O)c3c[nH]cc34)CC2)c(C)n1` [Example 34, 7-((4-(2-methyl-6-(methylcarbamoyl)pyridin-3-yl)piperazin-1-yl)methyl)-2,5-dihydro-4H-pyrrolo[3,4-c]quinolin-4-one], the IC50 worked out at 709 nM in test [1]; 5.06 nM in the test on MDA-MB-436 cells (Homo sapiens, MDA-MB-436, […]); 2.52 nM in test [2].

Regarding `CNC(=O)c1ccc(N2CCN(Cc3ccc4c(c3)[nH]c(=O)c3cn(C)cc34)CC2)c(C)n1` [Example 35, 7-((4-(2-methyl-6-(methylcarbamoyl)pyridin-3-yl)piperazin-1-yl)methyl)-2-methyl-2,5-dihydro-4H-pyrrolo[3,4-c]quinolin-4-one], the IC50 in test [1] came to 584 nM; with MDA-MB-436 cells (Homo sapiens, MDA-MB-436, […]) it was 8.24 nM; in test [2], 2.92 nM.

Consider `CNC(=O)c1ccc(N2CCN(Cc3ccc4c([nH]c(=O)c5cn[nH]c54)c3F)CC2)c(C)n1` [Example 45, 7-((4-(2-methyl-6-(methylcarbamoyl)pyridin-3-yl)piperazin-1-yl)methyl)-6-fluoro-1,5-dihydro-4H-pyrazolo[4,3-c]quinolin-4-one], for which the 50% inhibitory concentration (IC50) was determined as 278 nM in test [1]; 9.02 nM with MDA-MB-436 cells (Homo sapiens, MDA-MB-436, […]); 0.64 nM in test [2].

As to `CNC(=O)c1ccc(N2CCN(Cc3ccc4c(c3)[nH]c(=O)c3c(C)noc34)CC2)c(C)n1` [Example 47, 7-((4-(2-methyl-6-(methylcarbamoyl)pyridin-3-yl)piperazin-1-yl)methyl)-3-methylisoxazolo[4,5-c]quinolin-4(5H)-one], the half-maximal inhibitory concentration (IC50) was 504 nM in test [1]; 12.2 nM with MDA-MB-436 cells (Homo sapiens, MDA-MB-436, […]); 0.86 nM in test [2].

On to `CNC(=O)c1ccc(N2CCN(Cc3ccc4c(c3)[nH]c(=O)c3c(F)c(C)nn34)CC2)c(C)n1` [Example 51, 7-((4-(2-methyl-6-(methylcarbamoyl)pyridin-3-yl)piperazin-1-yl)methyl)-3-fluoro-2-methylpyrazolo[1,5-a]quinoxalin-4(5H)-one], for which the IC50 is 30.6 nM in test [1]; 8.45 nM in the test on MDA-MB-436 cells (Homo sapiens, MDA-MB-436, […]); 0.9 nM in test [2].

As for `CNC(=O)c1ccc(N2CCN(Cc3cc(F)c4c(c3)[nH]c(=O)c3cncn34)CC2)c(F)n1` [Example 53, 7-((4-(2-fluoro-6-(methylcarbamoyl)pyridin-3-yl)piperazin-1-yl)methyl)-9-fluoroimidazo[1,5-a]quinoxalin-4(5H)-one], the IC50 in test [1] worked out at 469 nM; in the test on MDA-MB-436 cells (Homo sapiens, MDA-MB-436, […]), 2.01 nM; in test [2] it was 0.25 nM.

`CNC(=O)c1ccc(N2CCN(Cc3cc(F)c4c(c3)[nH]c(=O)c3cncn34)CC2)c(Cl)n1` [Example 54, 7-((4-(2-chloro-6-(methylcarbamoyl)pyridin-3-yl)piperazin-1-yl)methyl)-9-fluoroimidazo[1,5-a]quinoxalin-4(5H)-one]: the IC50 is 648 nM in test [1]; 5.85 nM with MDA-MB-436 cells (Homo sapiens, MDA-MB-436, […]); 0.52 nM in test [2].

For `CNC(=O)c1ccc(N2CCN(Cc3ccc4c([nH]c(=O)c5cncn54)c3F)CC2)c(F)n1` [Example 55, 7-((4-(2-fluoro-6-(methylcarbamoyl)pyridin-3-yl)piperazin-1-yl)methyl)-6-fluoroimidazo[1,5-a]quinoxalin-4(5H)-one], the IC50 in test [1] stood at 776 nM; in the test on MDA-MB-436 cells (Homo sapiens, MDA-MB-436, […]), 14 nM; in test [2], 0.47 nM.

Turning to `CNC(=O)c1ccc(N2CCN(Cc3ccc4c([nH]c(=O)c5cncn54)c3F)CC2)c(Cl)n1` [Example 56, 7-((4-(2-chloro-6-(methylcarbamoyl)pyridin-3-yl)piperazin-1-yl)methyl)-6-fluoroimidazo[1,5-a]quinoxalin-4(5H)-one], the IC50 is 1570 nM in test [1]; 4.08 nM with MDA-MB-436 cells (Homo sapiens, MDA-MB-436, […]); 0.68 nM in test [2].

On to `CNC(=O)c1ccc(N2CCN(Cc3ccc4c([nH]c(=O)n5ccnc45)c3F)CC2)c(F)n1` [Example 61, 8-((4-(2-fluoro-6-(methylcarbamoyl)pyridin-3-yl)piperazin-1-yl)methyl)-7-fluoroimidazo[1,2-c]quinazolin-5(6H)-one], for which the IC50 in test [1] came to 7260 nM; in the test with MDA-MB-436 cells (Homo sapiens, MDA-MB-436, […]), 17.4 nM; in test [2] it was 2.23 nM.

For the compound `CCNC(=O)c1ccc(N2CCN(Cc3ccc4c([nH]c(=O)n5ccnc45)c3F)CC2)c(F)n1` [Example 62, 8-((4-(2-fluoro-6-(ethylcarbamoyl)pyridin-3-yl)piperazin-1-yl)methyl)-7-fluoroimidazo[1,2-c]quinazolin-5(6H)-one], the IC50 in test [1] was above 10000 nM; in the test on MDA-MB-436 cells (Homo sapiens, MDA-MB-436, […]) it was 46.7 nM; in test [2] it was 3.49 nM.

In the case of `CCNC(=O)c1ccc(N2CCN(Cc3ccc4c([nH]c(=O)n5ccnc45)c3F)CC2)c(C)n1` [Example 63, 8-((4-(2-methyl-6-(ethylcarbamoyl)pyridin-3-yl)piperazin-1-yl)methyl)-7-fluoroimidazo[1,2-c]quinazolin-5(6H)-one], the half-inhibitory concentration (IC50) in test [1] is above 10000 nM; in the test on MDA-MB-436 cells (Homo sapiens, MDA-MB-436, […]) it was 53.7 nM; in test [2], 3.86 nM.

For the compound `CNC(=O)c1ccc(N2CCN(Cc3ccc4c([nH]c(=O)c5c(F)cnn54)c3F)CC2)c(F)n1` [Example 188, 7-((4-(2-fluoro-6-(methylcarbamoyl)pyridin-3-yl)piperazin-1-yl)methyl)-3,6-difluoropyrazolo[1,5-a]quinoxalin-4(5H)-one], in the test with MDA-MB-436 cells, the IC50 was found to be 5.27 nM.

`CNC(=O)c1ccc(N2CCN(Cc3ccc4c([nH]c(=O)c5c(F)cnn54)c3Cl)CC2)c(C)n1` [Example 193, 3-fluoro-7-((4-(2-methyl-6-(methylcarbamoyl)pyridin-3-yl)piperazin-1-yl)methyl)-6-chloropyrazolo[1,5-a]quinoxalin-4(5H)-one] came in with an IC50 in the test with MDA-MB-436 cells (Homo sapiens, MDA-MB-436, […]) of 39.7 nM.

As for `N#Cc1ccc(N2CCN(Cc3ccc4c([nH]c(=O)c5c(F)cnn54)c3F)CC2)c(F)n1` [Example 195, 7-((4-(2-fluoro-6-cyanopyridin-3-yl)piperazin-1-yl)methyl)-3,6-difluoropyrazolo[1,5-a]quinoxalin-4(5H)-one], in the test on MDA-MB-436 cells (Homo sapiens, MDA-MB-436, […]), inhibition was half-maximal at 8.59 nM (IC50).

The compound `CNC(=O)c1ccc(N2CCN(Cc3ccc4c([nH]c(=O)c5c(F)cnn54)c3F)C[C@H]2C)c(F)n1` [Example 196, (R)-7-((4-(2-fluoro-6-(methylcarbamoyl)pyridin-3-yl)-3-methylpiperazin-1-yl)methyl)-3-6-difluoropyrazolo[1,5-a]quinoxalin-4(5H)-one] gave a half-inhibitory concentration (IC50) in the test on MDA-MB-436 cells (Homo sapiens, MDA-MB-436, […]) of 15.4 nM.

In the case of `CNC(=O)c1ccc(N2CCN(Cc3ccc4c([nH]c(=O)c5c(C(C)C)cnn54)c3F)CC2)c(F)n1` [Example 203, 7-((4-(2-fluoro-6-(methylcarbamoyl)pyridin-3-yl)piperazin-1-yl)methyl)-3-isopropyl-6-fluoropyrazolo[1,5-a]quinoxalin-4(5H)-one], the IC50 in the test with MDA-MB-436 cells (Homo sapiens, MDA-MB-436, […]) is above 100 nM.

By IC50 is commonly meant the concentration that inhibits the measured activity by half.
